Experimental findings from paper PMC10779222, “Copper(II) Complexes with 1-(Isoquinolin-3-yl)heteroalkyl-2-ones: Synthesis, Structure and Evaluation of Anticancer, Antimicrobial and Antioxidant Potential” (International Journal of Molecular Sciences, 2023) are described below.

The nature of data set [1]: ABTS radical scavenging assay. The following applies: ±SD; 10 min, 30 °C. Here is the method:
The ABTS radical scavenging assay of samples (ligands or complexes) was performed with ascorbic acid as a positive control. Briefly, 30 μL of different concentrations of the samples, dissolved in DMSO, was mixed with 170 μL of ABTS solution (2 mM ABTS diammonium salt, 3.5 mM potassium persulfate) and completed with water to a final volume of 300 μL. ABTS solution with DMSO was used as a control. […] ABTS inhibition was calculated according to the following equation:ABTS Inhibition (%) = [(Acontrol − Asample)/Acontrol] × 100% The radical scavenging activity of the samples was shown as the IC50 value (the concentration of the analyzed samples that caused a decrease in the non-reduced form of the ABTS radical by 50%).

The nature of data set [2]: DPPH radical scavenging assay. As to conditions: ±SD; 30 min, room temperature. Here is the method: The DPPH radical scavenging assay of samples was performed with ascorbic acid as a positive control. Briefly, 100 μL of different concentrations of the complexes, dissolved in DMSO, was mixed with 100 μL of 0.06 mM DPPH methanolic solution and incubated at room temperature in the dark for 30 min. The change in absorbance at λ = 517 nm was analyzed with the use of a 96-well microplate reader (Epoch, BioTek System, Winooski, VT, USA). The control was composed of DPPH and DMSO. DPPH inhibition was calculated according to the following equation:DPPH Inhibition (%) = [(Acontrol − Asample)/Acontrol] × 100% The radical scavenging activity of the samples was shown as the IC50 value (the concentration of the analyzed samples that caused a decrease in the non-reduced form of the DPPH radical by 50%).
In general terms: DPPH is a stable violet radical that fades when it is reduced.

The test system of data set [3] is A375 (melanoma). The data set is described as follows: MTT cytotoxicity assay on A375 cells. The format is cell-based, human. The following applies: for IC50: Homo sapiens, A-375, 24 h incubation, read-out: IC50 ± SD, A375. On the procedure: (§1) Cytotoxic activity of the investigated compounds was evaluated against T98G (glioblastoma), HepG2 (hepatoma), LS-180 (colon cancer) and A375 (melanoma) cell lines. Human normal skin fibroblasts, CCD-1059Sk (CRL-2072), were used as reference (non-cancerous) cells. All of the cell lines were obtained from American Type Culture Collection (ATCC; Manassas, VA, USA). A375, T98G and CCD-1059Sk cells were cultured in Dulbecco’s Modified Eagle’s Medium (DMEM) (Sigma Aldrich, St. Louis, MO, USA) supplemented with 10% FBS, penicillin (100 U/mL) and streptomycin (100 μg/mL). LS-180 and HepG2 cells were cultured in Eagle’s Minimum Essential Medium supplemented with 10% FBS, penicillin (100 U/mL) and streptomycin (100 μg/mL). All of the cells were maintained at 37 °C in a humidified atmosphere of 5% CO2. The compounds were dissolved in DMSO in order to obtain stock solutions. At the day of the experiment, the suspension of cells (1 × 10^5 cells/mL) was distributed onto 96-well plates at a volume of 100 μL/well. After attachment, the cells were treated with the increased concentrations of the tested compounds in medium containing 2% FBS and incubated for 24 h. Then, the medium was removed from wells, and cells were rinsed with PBS. Afterwards, 15 μL of MTT working solution (5 mg/mL in PBS) was added to each well, and the plates were incubated for 3 h. Subsequently, 100 μL of 10% SDS solution was added to each well in order to dissolve the precipitated formazan crystals. After overnight incubation at 37 °C, the absorbance of the obtained solution was measured at λ = 570 nm using a microplate reader (Epoch, BioTek Instruments, Inc., Winooski, VT, USA). At least two independent experiments were performed in triplicate. […] IC50 values of the investigated derivatives and positive control (etoposide) were calculated using the IC50 online calculator [101].
For orientation: Tetrazolium assays rely on reduction of a dye to a coloured formazan, in cell work by metabolically active cells.

Data set [4] has as its system HepG2 (hepatoma). The data set is described as follows: MTT cytotoxicity assay on HepG2 cells. The format is cell-based, human. As to conditions: MTT, 24 h incubation; for IC50: Homo sapiens, HepG2, read-out: IC50 ± SD, HepG2. On the procedure:
as §1

Data set [5] deals with Candida albicans ATCC 102231. The data set is described as follows: Two-fold microdilution broth method, MIC. The format is cell-based. As to conditions: 35 °C, 24 h. The text has this:
(§2) Antibacterial and antifungal activities of the free ligands L2, L3 and L4 and the corresponding copper(II) complexes C2, C3 and C4 were screened using the two-fold microdilution broth method. Minimal inhibitory concentrations (MICs) of tested compounds for the panel of reference Gram-positive bacteria, including Staphylococcus aureus ATCC 25923, Staphylococcus aureus ATCC BAA-1707, Staphylococcus epidermidis ATCC 12228, Micrococcus luteus ATCC 10240 and Bacillus cereus ATCC 10876; Gram-negative bacteria, including Salmonella Typhimurium ATCC 14028, Escherichia coli ATCC 25922, Proteus mirabilis ATCC 12453, Klebsiella pneumoniae ATCC 13883 and Pseudomonas aeruginosa ATCC 9027; and yeasts, including Candida albicans ATCC 102231, Candida parapsilosis ATCC 22019 and Candida glabrata ATCC 90030 were determined. The procedure has been described in detail before. Briefly, the solutions of tested compounds dissolved in dimethylosulfoxide (DMSO) were suspended in Mueller–Hinton broth for bacteria or Mueller–Hinton broth with 2% glucose for fungi. Then, the series of two-fold dilutions were carried out in the sterile Nunc™ MicroWell™ 96-Well Microplates (ThermoFisher Scientific Inc.), obtaining concentrations from 1000 to 7.8 mg/L in the appropriate medium. Simultaneously, the inocula of 24 h cultures of microorganisms in sterile physiological saline (0.5 McFarland standard density) were prepared and added to each well, obtaining final density of 5 × 10^5 CFU/mL for bacteria and 5 × 10^4 CFU/mL for yeasts. Proper positive (inoculum without tested compound) and negative (compound without inoculum) controls were added in each microplate. After incubation (35 °C, 24 h), the growth of microorganisms was measured spectrophotometrically at 600 nm (BioTEK ELx808, Bio-Tek Instruments, Inc., Winooski, VT, USA). MICs were marked at the lowest concentration of the compound without the growth of bacteria or fungi.

The test system of data set [6] is Candida glabrata ATCC 90030. The data set is described as follows: Two-fold microdilution broth method, MIC. The format is cell-based. The following applies: 35 °C, 24 h.
Source text: as §2

Data set [7] deals with Candida parapsilosis ATCC 22019. The data set is described as follows: Two-fold microdilution broth method, MIC. The format is cell-based. As to conditions: 35 °C, 24 h.
Source text: as §2
For orientation: In broth dilution the organism is exposed to a series of concentrations in liquid medium.

The test system of data set [8] is T98G (glioblastoma). The data set is described as follows: MTT cytotoxicity assay on T98G cells. The format is cell-based. As to conditions: MTT, 24 h incubation; for IC50: Homo sapiens, T98G, read-out: IC50 ± SD, T98G. Here is the method:
as §1

Data set [9] has as its system LS-180 (colon cancer). The data set is described as follows: MTT cytotoxicity assay on LS-180 cells. The format is cell-based, human. The following applies: for IC50: Homo sapiens, LS180, 24 h incubation, read-out: IC50 ± SD, LS180. Here is the method: as §1
The test system of data set [10] is CCD-1059Sk (human normal skin fibroblasts). The data set is described as follows: MTT cytotoxicity assay on non-cancerous fibroblasts. The format is cell-based. As to conditions: 24 h incubation, non-cancerous cells; for IC50: Homo sapiens, CCD-1059Sk, read-out: IC50 ± SD, CCD-1059-Sk. On the procedure:
as §1

Data set [11] relates to A375, HepG2, LS-180, T98G and CCD-1059Sk cell lines. The data set is described as follows: MTT cytotoxicity assay, summary statements over several cell lines. The format is cell-based. As to conditions: Homo sapiens; all cell lines (A375, HepG2, LS-180, T98G, CCD-1059-Sk). On the procedure:
as §1

≈ marks a conversion by molar mass, not a printed value.

For the molecule `O=C1O[C@H]([C@@H](O)CO)C(O)=C1O` [Ascorbic acid, reference compound], the “IC50 ABTS” value in [1] was 20.15 ± 0.33 µg/mL (≈ 114 µM). The “IC50 DPPH” value in [2] was 11.65 ± 0.54 µg/mL (≈ 66.1 µM).
In general, melting point refers to the temperature of the solid-liquid transition. For orientation: IC50 means the concentration that gives 50% inhibition. What is called MIC is the least concentration at which growth counts as inhibited. Read a high MIC as weaker potency. On to `CCN1CCN(c2cc3ccccc3cn2)C1=O` [L4, 1-ethyl-3-(isoquinolin-3-yl)imidazolidin-2-one], for which the melting point fell in the range of 151 to 153 °C. Also, the IC50 in [3] was above 200 µg/mL. In addition, in data set [1], the “IC50 ABTS” value was 108.59 ± 1.51 µg/mL (≈ 450 µM). In addition, the IC50 in data set [4] was above 200 µg/mL. The minimum inhibitory concentration (MIC) in [5] (Candida albicans, ATCC102231) is 1000 µg/mL (≈ 4140 µM). This molecule showed an MIC in data set [6] (Nakaseomyces glabratus, ATCC90030) of 1000 µg/mL (≈ 4140 µM). In [7] (Lodderomyces parapsilosis, ATCC22019), the MIC was above 1000 µg/mL. Besides, the half-inhibitory concentration (IC50) in [8] is above 200 µg/mL. The 50% inhibitory concentration (IC50) in data set [9] was above 200 µg/mL. The IC50 in data set [10] is above 200 µg/mL. Besides, the IC50 in data set [11] was above 200 µg/mL.
`COc1cc([C@@H]2c3cc4c(cc3[C@@H](O[C@@H]3O[C@@H]5CO[C@@H](C)O[C@H]5[C@H](O)[C@H]3O)[C@H]3COC(=O)[C@H]23)OCO4)cc(OC)c1O` [Etoposide, etoposide, reference compound]: the IC50 is 10.2 ± 0.83 µg/mL (≈ 17.3 µM) in data set [3]; 43.2 ± 2.75 µg/mL (≈ 73.4 µM) in data set [4]; above 100 µg/mL in [8]; above 100 µg/mL in data set [9]; 83.5 ± 3.19 µg/mL (≈ 142 µM) in [10].
With `CN1CCN(c2cc3ccccc3cn2)C1=O.[Cl][Cu][Cl]` [C3, Dichloro[1-(Isoquinolin-3-yl)-3-methylimidazolidin-2-one]copper(II)], the “IC50 ± SD, A375” value in data set [3] (24 h incubation) was 22.78 ± 1.14 µg/mL. Moreover, the “IC50 ABTS” value in data set [1] is listed as 106.19 ± 2.55 µg/mL. Also, the “IC50 ± SD, HepG2” value in data set [4] amounted to 12.00 ± 0.36 µg/mL. The “MIC, C. albicans ATCC 102231” value in [5] was 1000 µg/mL. Also, the “MIC, C. glabrata ATCC 90030” value in data set [6] turned out to be 1000 µg/mL. The “MIC, C. parapsilosis ATCC 22019” value in data set [7] was found to be 1000 µg/mL. Also, the “IC50 ± SD, T98G” value in data set [8] is 10.55 ± 0.74 µg/mL. The “IC50 ± SD, LS180” value in data set [9] (24 h incubation) stood at 7.09 ± 0.53 µg/mL. In data set [2], the “IC50 DPPH” value was 380.65 ± 2.74 µg/mL. In addition, the “IC50 ± SD, CCD-1059-Sk” value in data set [10] was determined as 25.17 ± 0.85 µg/mL.
